From PubChem BioAssay AID248 (DTP/NCI, 2004) come the findings set out here.

Inconclusive results and toxic doses are left out. Peptide text beside a SMILES is read from it. * marks the point of attachment. Cbz = O=C(OCc1ccccc1)*; Bn = c1ccc(C*)cc1

In the test the test system is L1210 leukemia ip in BDF1 mice, survival T/C. Put plainly: NCI In Vivo Anticancer Drug Screen. Data for tumor model L1210 Leukemia (intraperitoneal) in B6D2F1 (BDF1) mice. Conditions: endpoint: mean survival time, higher = longer survival. The essentials:
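Mice bearing the transplanted tumor received compound or vehicle. Survival of the treated group was divided by that of the vehicle-treated control group to give the ratio.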

[1] abbreviates: dose: 100.0 mg/kg/injection, schedule: Q01DX009 (ip), vehicle: saline with Tween-80.
[2] abbreviates: dose: 100.0 mg/kg/injection, schedule: Q04DX003 (ip), vehicle: saline with Tween-80.
[3] abbreviates: dose: 200.0 mg/kg/injection, schedule: Q01DX009 (ip), vehicle: saline with Tween-80.
The mark [4] stands for this setting: dose: 200.0 mg/kg/injection, schedule: Q04DX003 (ip), vehicle: saline with Tween-80.
Where [5] appears, read: dose: 400.0 mg/kg/injection, schedule: Q01DX009 (ip), vehicle: saline with Tween-80.
[6] abbreviates: dose: 400.0 mg/kg/injection, schedule: Q04DX003 (ip), vehicle: saline with Tween-80.
The mark [7] stands for this setting: dose: 100.0 mg/kg/injection, schedule: Q01DX001 (ip), vehicle: saline.
Where [8] appears, read: dose: 200.0 mg/kg/injection, schedule: Q01DX001 (ip), vehicle: saline.
[9] abbreviates: dose: 100.0 mg/kg/injection, schedule: Q01DX001 (ip), vehicle: saline with Tween-80.
Where [10] appears, read: dose: 200.0 mg/kg/injection, schedule: Q01DX001 (ip), vehicle: saline with Tween-80.
[11] abbreviates: dose: 400.0 mg/kg/injection, schedule: Q01DX001 (ip), vehicle: saline with Tween-80.
Where [12] appears, read: dose: 100.0 mg/kg/injection, schedule: Q01DX009 (ip), vehicle: Klucel (hydroxypropylcellulose) (HPC).
Setting [13] is: dose: 200.0 mg/kg/injection, schedule: Q01DX009 (ip), vehicle: Klucel (hydroxypropylcellulose) (HPC).

For the molecule `O/N=C1\CCCC\C1=N/O.O/N=C1\CCCC\C1=N/O.[Pd]`, the T/C is, setting by setting: (dose: 100.0 mg/kg/injection, schedule: Q01DX009 (ip), vehicle: other) 94 % of control; (dose: 100.0 mg/kg/injection, schedule: Q04DX003 (ip), vehicle: other) 102 % of control; (dose: 200.0 mg/kg/injection, schedule: Q01DX009 (ip), vehicle: other) 107 % of control; (dose: 200.0 mg/kg/injection, schedule: Q04DX003 (ip), vehicle: other) 98 % of control; (dose: 400.0 mg/kg/injection, schedule: Q01DX009 (ip), vehicle: other) 91 % of control; (dose: 400.0 mg/kg/injection, schedule: Q04DX003 (ip), vehicle: other) 90 % of control.

In the case of `Cc1cccc(C)c1NC(=O)C(C)C`, the T/C runs as follows: under setting [1], 94 % of control; under setting [2], 98 % of control; under setting [3], 95 % of control; under setting [4], 98 % of control; under setting [5], 90 % of control; under setting [6], 96 % of control.

Consider `CC(=O)N(O)CCCC1NC(=O)C(CCCN(O)C(C)=O)NC1=O` (stereo not given), for which the T/C was 97 % of control under setting [7]; 100 % of control under setting [1]; 92 % of control under setting [2]; 95 % of control under setting [8]; 102 % of control under setting [3]; 92 % of control under setting [4]. Moreover, the T/C (dose: 400.0 mg/kg/injection, schedule: Q01DX001 (ip), vehicle: saline) was 95 % of control; the T/C under setting [5] is 105 % of control; the T/C under setting [6] is 100 % of control.

Regarding `CC(=O)Nc1ccc(/C=C(\C#N)c2ccc([N+](=O)[O-])cc2)cc1`, the T/C is 95 % of control (dose: 100.0 mg/kg/injection, schedule: Q04DX002 (ip), vehicle: gum acacia); 103 % of control (dose: 200.0 mg/kg/injection, schedule: Q04DX002 (ip), vehicle: gum acacia); 95 % of control (dose: 400.0 mg/kg/injection, schedule: Q04DX002 (ip), vehicle: gum acacia).

For `CC(=O)OC1CCC2C3CCC4=CC(=O)CCC4(C)C3=CCC12C` (stereo not given), the T/C under setting [9] was 95 % of control, the T/C under setting [10] is 95 % of control and the T/C under setting [11] was 92 % of control.

With `Clc1ccc2c(c1)/C(=C/c1ccccc1Cl)c1cc(Cl)cc(Cl)c1-2`, the T/C is, setting by setting: (dose: 100.0 mg/kg/injection, schedule: Q01DX001 (ip), vehicle: Klucel (hydroxypropylcellulose) (HPC)) 90 % of control; under setting [12], 100 % of control; (dose: 100.0 mg/kg/injection, schedule: Q04DX003 (ip), vehicle: Klucel (hydroxypropylcellulose) (HPC)) 91 % of control; (dose: 200.0 mg/kg/injection, schedule: Q01DX001 (ip), vehicle: Klucel (hydroxypropylcellulose) (HPC)) 88 % of control; under setting [13], 88 % of control; (dose: 200.0 mg/kg/injection, schedule: Q04DX003 (ip), vehicle: Klucel (hydroxypropylcellulose) (HPC)) 87 % of control. The T/C runs as follows: (dose: 400.0 mg/kg/injection, schedule: Q01DX001 (ip), vehicle: Klucel (hydroxypropylcellulose) (HPC)) 91 % of control; (dose: 400.0 mg/kg/injection, schedule: Q01DX009 (ip), vehicle: Klucel (hydroxypropylcellulose) (HPC)) 102 % of control; (dose: 400.0 mg/kg/injection, schedule: Q04DX003 (ip), vehicle: Klucel (hydroxypropylcellulose) (HPC)) 87 % of control.

For the molecule `COC(=O)/C(=C\c1ccccc1)CNC(C)(C)C`, the T/C by setting is: under setting [7], 100 % of control; under setting [8], 97 % of control.

With `NS(=O)(=O)c1ccc(S(=O)(=O)N2CCCCC2)cc1`, the T/C under setting [12] was 90 % of control and the T/C under setting [13] is 96 % of control.

`NC(=O)c1cc([N+](=O)[O-])ccc1N1CC[N+](CCCl)=N1`: the T/C by setting is: under setting [9], 100 % of control; under setting [10], 91 % of control; under setting [11], 90 % of control.

Regarding `CN1CCCN(C)C1`, the T/C runs as follows: (dose: 50.0 mg/kg/injection, schedule: Q01DX009 (ip), vehicle: saline with Tween-80) 100 % of control; under setting [1], 100 % of control; under setting [2], 93 % of control; under setting [4], 88 % of control.

Take `CC(Cl)CNC(=O)N(CC(C)Cl)N=O` (stereo not given): the T/C reads like this: (dose: 8.0 mg/kg/injection, schedule: Q01DX001 (ip), vehicle: carboxymethylcellulose (CMC)) 108 % of control; (dose: 16.0 mg/kg/injection, schedule: Q01DX001 (ip), vehicle: carboxymethylcellulose (CMC)) 101 % of control; (dose: 31.0 mg/kg/injection, schedule: Q01DX001 (ip), vehicle: carboxymethylcellulose (CMC)) 97 % of control; (dose: 62.0 mg/kg/injection, schedule: Q01DX001 (ip), vehicle: carboxymethylcellulose (CMC)) 100 % of control; (dose: 125.0 mg/kg/injection, schedule: Q01DX001 (ip), vehicle: carboxymethylcellulose (CMC)) 97 % of control; (dose: 250.0 mg/kg/injection, schedule: Q01DX001 (ip), vehicle: carboxymethylcellulose (CMC)) 101 % of control. For the same molecule, the T/C is 103 % of control (dose: 375.0 mg/kg/injection, schedule: Q01DX001 (ip), vehicle: carboxymethylcellulose (CMC)); 122 % of control (dose: 500.0 mg/kg/injection, schedule: Q01DX001 (ip), vehicle: carboxymethylcellulose (CMC)); 197 % of control (dose: 750.0 mg/kg/injection, schedule: Q01DX001 (ip), vehicle: carboxymethylcellulose (CMC)); 240 % of control (dose: 1000.0 mg/kg/injection, schedule: Q01DX001 (ip), vehicle: carboxymethylcellulose (CMC)).

For `CCSc1nc(N)nc2c1ncn2C`, the T/C was 94 % of control (dose: 100.0 mg/kg/injection, schedule: Q01DX001 (ip), vehicle: acetone); 91 % of control (dose: 200.0 mg/kg/injection, schedule: Q01DX001 (ip), vehicle: acetone); 90 % of control (dose: 400.0 mg/kg/injection, schedule: Q01DX001 (ip), vehicle: acetone).

Turning to `COC(=O)C(CC(C)C)NC(=O)C(CSCc1ccccc1)NC(=O)OCc1ccccc1` (stereo not given) (Cbz-Cys(Bn)-Leu-OMe; configuration not given here), the T/C reads like this: (dose: 100.0 mg/kg/injection, schedule: Q04DX003 (ip), vehicle: DMSO) 102 % of control; (dose: 200.0 mg/kg/injection, schedule: Q04DX003 (ip), vehicle: DMSO) 104 % of control; (dose: 400.0 mg/kg/injection, schedule: Q04DX003 (ip), vehicle: DMSO) 96 % of control.

Take `CCN(CC)CCNc1ccc(N=Nc2cnc3ccccc3c2)c2ccccc12`: the T/C reads like this: (dose: 1.12 mg/kg/injection, schedule: Q01DX009 (ip), vehicle: other) 98 % of control; (dose: 2.25 mg/kg/injection, schedule: Q01DX009 (ip), vehicle: other) 92 % of control; (dose: 4.5 mg/kg/injection, schedule: Q01DX009 (ip), vehicle: other) 93 % of control; (dose: 9.0 mg/kg/injection, schedule: Q01DX009 (ip), vehicle: other) 97 % of control; (dose: 100.0 mg/kg/injection, schedule: Q01DX001 (ip), vehicle: other) 91 % of control; (dose: 200.0 mg/kg/injection, schedule: Q01DX001 (ip), vehicle: other) 91 % of control. Moreover, for the setting “dose: 400.0 mg/kg/injection, schedule: Q01DX001 (ip), vehicle: other”, the T/C was 97 % of control.

Take `CN(C)c1ccnc(N(C)C)n1`: the T/C runs as follows: (dose: 16.0 mg/kg/injection, schedule: Q01DX Z (ip), vehicle: methylcellulose (MC)) 96 % of control; (dose: 31.0 mg/kg/injection, schedule: Q01DX Z (ip), vehicle: methylcellulose (MC)) 98 % of control.

As to `O=C(O)CCC(=O)c1ccc2c3c1CCCC3CC2` (stereo not given), the T/C is 107 % of control (dose: 100.0 mg/kg/injection, schedule: Q04DX002 (ip), vehicle: Klucel (hydroxypropylcellulose) (HPC)); 101 % of control (dose: 200.0 mg/kg/injection, schedule: Q04DX002 (ip), vehicle: Klucel (hydroxypropylcellulose) (HPC)); 93 % of control (dose: 400.0 mg/kg/injection, schedule: Q04DX002 (ip), vehicle: Klucel (hydroxypropylcellulose) (HPC)).
